Results reported in paper PMC6851853, “Characterization of P. falciparum dipeptidyl aminopeptidase 3 specificity identifies differences in amino acid preferences between peptide‐based substrates and covalent inhibitors” (The Febs Journal, 2019).

Key:
[1] = biological target: T1, DPAP3 (Plasmodium falciparum, UniProt Q8I1Y2); assay: biochemical; design: gene PF3D7_0404700; recombinant, baculovirus/SF9 insect cells, purified from culture supernatant by ion exchange, Ni-NTA and size exclusion; active-site titrated; continuous fluorogenic assay, time-dependent inactivation of 0.2 nM recombinant DPAP3, Met-nLeu(o-Bzl)-ACC 2.2 uM; conditions: for kinact: read-out: DPAP3 / k inact ·10^3; for kinact/KI: read-out: DPAP3 / k inact/K i ·10^−3 (M ^−1·s^−1)
Experimental: The data were analysed according to the irreversible inhibition model shown in Eqn. 1. First, the progress curves (fluorescent units vs. time) were fitted to Eqn. 5, where F is the measured fluorescence at time t, F 0 the initial fluorescence, V 0 the initial turnover rate, and k obs the observed […] rate constant of inhibition measured at each inhibitor concentration 64. […] The inhibition constants are reported in Fig. 3C and Table 2 (See also Fig. S2 for representative fits). Only one inhibitor, containing an amino‐1‐methyl‐benzyl (Amb) group in P2, was not able to inhibit DPAP3 in a time‐dependent manner under our assay conditions (Fig. 3D). This is probably due to the fact that this extended and rigid P2 AA (Fig. 3E) might prevent proper positioning of the [compound left out] group into the active site of DPAP3 to allow covalent modification of the catalytic cysteine. For this compound, a K i value for reversible inhibition was measured.
Target sequence in this assay (Q8I1Y2 entry or part of it): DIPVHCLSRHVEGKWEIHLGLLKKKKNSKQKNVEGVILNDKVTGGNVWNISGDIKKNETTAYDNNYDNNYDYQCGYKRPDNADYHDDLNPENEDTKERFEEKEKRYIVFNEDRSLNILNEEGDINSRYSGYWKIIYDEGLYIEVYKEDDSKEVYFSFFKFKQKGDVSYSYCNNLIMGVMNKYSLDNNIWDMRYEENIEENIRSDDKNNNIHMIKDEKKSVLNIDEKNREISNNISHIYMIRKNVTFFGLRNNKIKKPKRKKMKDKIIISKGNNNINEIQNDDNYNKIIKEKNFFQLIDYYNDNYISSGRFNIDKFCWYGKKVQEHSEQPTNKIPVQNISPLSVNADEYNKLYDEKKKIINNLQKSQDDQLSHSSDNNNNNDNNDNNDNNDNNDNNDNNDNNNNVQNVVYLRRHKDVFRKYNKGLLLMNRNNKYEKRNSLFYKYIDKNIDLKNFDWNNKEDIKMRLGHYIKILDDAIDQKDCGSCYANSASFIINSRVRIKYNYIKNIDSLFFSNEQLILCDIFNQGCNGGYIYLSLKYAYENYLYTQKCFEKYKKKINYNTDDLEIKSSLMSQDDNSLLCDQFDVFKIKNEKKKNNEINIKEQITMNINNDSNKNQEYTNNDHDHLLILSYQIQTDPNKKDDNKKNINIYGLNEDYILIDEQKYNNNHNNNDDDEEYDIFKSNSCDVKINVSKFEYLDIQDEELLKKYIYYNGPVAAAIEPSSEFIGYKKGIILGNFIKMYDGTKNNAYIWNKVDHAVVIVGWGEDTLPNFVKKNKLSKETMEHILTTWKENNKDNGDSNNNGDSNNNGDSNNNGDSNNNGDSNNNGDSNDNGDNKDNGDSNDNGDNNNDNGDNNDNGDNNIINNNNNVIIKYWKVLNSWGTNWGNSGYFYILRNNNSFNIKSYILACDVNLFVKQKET

[2] = biological target: T2, CatC (bovine) (Bos taurus, UniProt Q3ZCJ8); assay: biochemical; design: continuous fluorogenic assay, time-dependent inactivation of 0.2 nM CatC, Gly-Arg-AMC 15 uM; conditions: for kinact: read-out: CatC / k inact ·10^3; for kinact/KI: read-out: CatC / k inact/K i ·10^−3 (M ^−1·s^−1)
T2 construct: gene CTSC; native, purified to homogeneity from bovine spleen
Experimental: (§1) Inhibition of DPAP1 was directly measured in parasite lysates diluted 100‐fold in assay buffer using the DPAP1‐selective substrate Pro‐Arg‐AMC 42; 0.2 nM of […] was used for these inhibition studies. Note that because DPAP1 inhibition was directly measured in parasite lysates, inhibitors might have been partially inactivated through the action of aminopeptidases present in the lysates during the course of the assay. Therefore, the potency of the inhibitors might have been underestimated. […] The data were analysed according to the irreversible inhibition model shown in Eqn. 1. First, the progress curves (fluorescent units vs. time) were fitted to Eqn. 5, where F is the measured fluorescence at time t, F 0 the initial fluorescence, V 0 the initial turnover rate, and k obs the observed […] rate constant of inhibition measured at each inhibitor concentration 64.

[3] = biological target: T3, DPAP1 (Plasmodium falciparum, UniProt Q8IIJ9); assay: biochemical; design: species or system P. falciparum parasite lysate; continuous fluorogenic assay, time-dependent inactivation of DPAP1 in diluted parasite lysate, Pro-Arg-AMC 20 uM; conditions: for kinact: read-out: DPAP1 / k inact ·10^3; for kinact/KI: read-out: DPAP1 / k inact/K i ·10^−3 (M ^−1·s^−1)
T3 sequence (Q8IIJ9 28-209): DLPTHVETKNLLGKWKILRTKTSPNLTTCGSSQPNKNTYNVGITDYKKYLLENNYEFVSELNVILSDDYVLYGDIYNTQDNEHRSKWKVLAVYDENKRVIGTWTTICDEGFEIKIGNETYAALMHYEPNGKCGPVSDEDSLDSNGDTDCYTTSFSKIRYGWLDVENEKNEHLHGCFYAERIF
T3 sequence (Q8IIJ9 370-599): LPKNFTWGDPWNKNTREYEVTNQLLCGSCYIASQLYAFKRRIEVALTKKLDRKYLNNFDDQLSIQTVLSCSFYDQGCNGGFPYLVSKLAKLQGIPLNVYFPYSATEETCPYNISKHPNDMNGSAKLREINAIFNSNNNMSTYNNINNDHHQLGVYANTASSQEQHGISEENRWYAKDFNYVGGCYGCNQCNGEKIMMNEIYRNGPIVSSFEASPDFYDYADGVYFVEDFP
T3 sequence (Q8IIJ9 600-700): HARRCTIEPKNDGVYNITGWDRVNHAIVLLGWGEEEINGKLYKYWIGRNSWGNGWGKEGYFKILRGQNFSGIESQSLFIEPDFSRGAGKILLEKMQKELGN
Experimental: as §1

[4] = biological target: T1, DPAP3; assay: cell-based; design: native enzyme in live parasites (mature schizonts); species or system P. falciparum mature schizonts in red blood cells; competitive activity-based probe FY01 labelling in intact parasites, in-gel fluorescence densitometry; conditions: live parasites, 30 min pretreatment
Experimental: Live parasites were treated with different concentrations of inhibitor for 30 min, and the residual level of DPAPs and FPs activities were labelled with FY01 and quantified by densitometry (Fig. 6A). […] Compounds with a P2 Trp or Tyr(NO2) are highly specific for DPAP3 in intact parasites. […] Inhibitors need to cross four membranes to reach DPAP3: the RBC, parasitophorous vacuole and parasite plasma membranes, plus the membrane of the apical organelle where DPAP3 resides 21. (The parasitophorous vacuole is a membrane‐bound structure within which the parasite grows and multiplies isolated from the RBC cytosol.) However, crossing of the parasitophorous vacuole membrane is not likely to be a limiting factor to reach DPAP3 since this membrane is generally permeable to small molecules. It is also likely that the apparent increased potency of Trp‐hPG‐VS in live parasites might be due to its accumulation into the DPAP3 acidic organelle via protonation of its free amine. However, we predict that this lysosomotropic effect likely occurs for all DPAP inhibitors presented here.  Figure 6 Selective inhibition of DPAP1 or DPAP3 in live parasites. Intact mature schizonts were pretreated for 30 min with increasing concentrations of inhibitor followed by 1 h treatment with FY01. Samples were then run in an SDS/PAGE gel and the in‐gel fluorescence measured using a fluorescence scanner. (A) Representative gel images obtained for each of the inhibitors. Fluorescent bands corresponding to the different cysteine proteases labelled by the probe are indicated with arrowheads (DPAP3, red; FPs, green; DPAP1, blue). (B) The fluorescence intensity of each of the indicated bands was quantified by densitometry using ImageJ, and the fluorescence values normalized to the DMSO control. […] Three technical replicates were performed; dose responses for a representative replicate are shown.
Target sequence in this assay (Q8I1Y2 entry or part of it): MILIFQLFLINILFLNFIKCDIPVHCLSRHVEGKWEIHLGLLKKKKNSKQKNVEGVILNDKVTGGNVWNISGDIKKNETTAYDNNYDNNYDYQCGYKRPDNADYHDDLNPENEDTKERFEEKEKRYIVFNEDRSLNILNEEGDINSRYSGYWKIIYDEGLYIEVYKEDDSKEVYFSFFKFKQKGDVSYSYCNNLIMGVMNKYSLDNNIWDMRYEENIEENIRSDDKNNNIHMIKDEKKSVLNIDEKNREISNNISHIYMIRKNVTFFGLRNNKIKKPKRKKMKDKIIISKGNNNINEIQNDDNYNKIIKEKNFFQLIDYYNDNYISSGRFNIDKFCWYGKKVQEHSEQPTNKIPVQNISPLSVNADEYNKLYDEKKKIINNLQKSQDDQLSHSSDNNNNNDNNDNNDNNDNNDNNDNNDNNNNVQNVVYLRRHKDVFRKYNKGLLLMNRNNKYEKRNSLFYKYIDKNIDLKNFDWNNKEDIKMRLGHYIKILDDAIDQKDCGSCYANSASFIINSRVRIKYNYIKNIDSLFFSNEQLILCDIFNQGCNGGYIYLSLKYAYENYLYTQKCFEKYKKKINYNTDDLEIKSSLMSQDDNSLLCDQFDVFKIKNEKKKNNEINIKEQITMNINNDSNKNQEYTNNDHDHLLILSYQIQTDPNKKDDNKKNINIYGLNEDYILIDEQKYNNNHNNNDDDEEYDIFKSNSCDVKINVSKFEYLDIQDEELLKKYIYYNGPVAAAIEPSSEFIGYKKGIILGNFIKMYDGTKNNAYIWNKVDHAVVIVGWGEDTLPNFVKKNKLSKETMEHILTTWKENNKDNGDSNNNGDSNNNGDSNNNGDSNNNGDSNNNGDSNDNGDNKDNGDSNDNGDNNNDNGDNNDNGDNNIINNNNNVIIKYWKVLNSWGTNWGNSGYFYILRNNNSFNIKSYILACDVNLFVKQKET

[5] = biological target: T4, FP1 (Plasmodium falciparum, UniProt P25805); assay: cell-based; design: species or system P. falciparum mature schizonts in red blood cells; competitive activity-based probe FY01 labelling in intact parasites, in-gel fluorescence densitometry; conditions: live parasites, 30 min pretreatment
T4 construct: native falcipain 1 in live parasites (mature schizonts)
Experimental: (§2) Live parasites were treated with different concentrations of inhibitor for 30 min, and the residual level of DPAPs and FPs activities were labelled with FY01 and quantified by densitometry (Fig. 6A). […] Compounds with a P2 Trp or Tyr(NO2) are highly specific for DPAP3 in intact parasites. […] Inhibitors need to cross four membranes to reach DPAP3: the RBC, parasitophorous vacuole and parasite plasma membranes, plus the membrane of the apical organelle where DPAP3 resides 21. (The parasitophorous vacuole is a membrane‐bound structure within which the parasite grows and multiplies isolated from the RBC cytosol.) However, crossing of the parasitophorous vacuole membrane is not likely to be a limiting factor to reach DPAP3 since this membrane is generally permeable to small molecules. It is also likely that the apparent increased potency of Trp‐hPG‐VS in live parasites might be due to its accumulation into the DPAP3 acidic organelle via protonation of its free amine. However, we predict that this lysosomotropic effect likely occurs for all DPAP inhibitors presented here. […] Samples were then run in an SDS/PAGE gel and the in‐gel fluorescence measured using a fluorescence scanner. […] (B) The fluorescence intensity of each of the indicated bands was quantified by densitometry using ImageJ, and the fluorescence values normalized to the DMSO control. […]

[6] = biological target: T5, DPAP1 (Plasmodium falciparum, UniProt Q8IIJ9); assay: cell-based; design: species or system P. falciparum mature schizonts in red blood cells; competitive activity-based probe FY01 labelling in intact parasites, in-gel fluorescence densitometry; conditions: live parasites, 30 min pretreatment
T5 construct: native enzyme in live parasites (mature schizonts)
T5 sequence (Q8IIJ9 1-700): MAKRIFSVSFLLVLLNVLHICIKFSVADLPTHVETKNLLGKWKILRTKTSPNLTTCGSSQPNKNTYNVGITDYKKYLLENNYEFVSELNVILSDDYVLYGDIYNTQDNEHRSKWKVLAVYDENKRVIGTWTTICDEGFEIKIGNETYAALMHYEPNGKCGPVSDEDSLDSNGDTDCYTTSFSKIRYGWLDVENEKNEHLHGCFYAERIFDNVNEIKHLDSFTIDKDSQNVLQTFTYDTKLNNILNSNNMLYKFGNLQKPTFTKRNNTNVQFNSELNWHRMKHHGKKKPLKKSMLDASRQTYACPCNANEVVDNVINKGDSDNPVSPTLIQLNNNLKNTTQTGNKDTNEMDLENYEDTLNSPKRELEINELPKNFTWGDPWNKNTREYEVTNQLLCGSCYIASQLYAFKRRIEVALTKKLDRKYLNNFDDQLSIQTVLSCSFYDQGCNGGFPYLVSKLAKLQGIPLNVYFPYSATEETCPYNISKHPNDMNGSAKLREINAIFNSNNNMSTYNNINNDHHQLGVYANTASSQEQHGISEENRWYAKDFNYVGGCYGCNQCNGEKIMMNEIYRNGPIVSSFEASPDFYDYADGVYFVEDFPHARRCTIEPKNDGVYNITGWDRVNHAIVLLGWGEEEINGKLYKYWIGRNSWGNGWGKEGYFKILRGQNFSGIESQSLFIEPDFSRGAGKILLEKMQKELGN
Experimental: as §2

T2 sequence (Q3ZCJ8 25-134): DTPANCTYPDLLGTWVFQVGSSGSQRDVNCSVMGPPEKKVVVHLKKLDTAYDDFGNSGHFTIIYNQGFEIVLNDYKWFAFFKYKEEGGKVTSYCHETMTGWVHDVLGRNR
T2 sequence (Q3ZCJ8 231-394): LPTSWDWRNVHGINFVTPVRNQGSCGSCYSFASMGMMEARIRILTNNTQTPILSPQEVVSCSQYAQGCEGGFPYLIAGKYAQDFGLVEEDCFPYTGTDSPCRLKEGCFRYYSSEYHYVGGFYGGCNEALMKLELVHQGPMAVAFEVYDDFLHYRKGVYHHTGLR
T2 sequence (Q3ZCJ8 395-463): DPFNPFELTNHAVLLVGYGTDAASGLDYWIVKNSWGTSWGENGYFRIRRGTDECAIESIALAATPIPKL
T4 sequence (P25805 whole entry): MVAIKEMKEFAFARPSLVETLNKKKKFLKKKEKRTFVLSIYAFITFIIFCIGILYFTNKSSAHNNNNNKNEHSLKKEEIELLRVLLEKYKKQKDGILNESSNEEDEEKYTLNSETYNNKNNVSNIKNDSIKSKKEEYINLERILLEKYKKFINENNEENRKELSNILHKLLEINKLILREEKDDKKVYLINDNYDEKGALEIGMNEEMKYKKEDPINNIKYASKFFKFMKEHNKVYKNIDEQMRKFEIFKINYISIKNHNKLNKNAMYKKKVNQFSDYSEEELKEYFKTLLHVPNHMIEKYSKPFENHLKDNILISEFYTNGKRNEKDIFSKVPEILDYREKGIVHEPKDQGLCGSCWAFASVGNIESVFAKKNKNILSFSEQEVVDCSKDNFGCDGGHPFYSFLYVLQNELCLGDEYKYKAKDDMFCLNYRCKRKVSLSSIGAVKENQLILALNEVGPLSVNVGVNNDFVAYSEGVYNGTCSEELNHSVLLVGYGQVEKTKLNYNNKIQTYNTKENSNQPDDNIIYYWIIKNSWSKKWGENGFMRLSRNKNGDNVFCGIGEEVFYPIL

Compound	kinact [1] [s⁻¹]	kinact/KI [1] [M⁻¹ s⁻¹]	kinact [2] [s⁻¹]	kinact/KI [2] [M⁻¹ s⁻¹]	kinact [3] [s⁻¹]	kinact/KI [3] [M⁻¹ s⁻¹]	IC50 [4] [nM]	IC50 [5] [nM]	IC50 [6] [nM]
N[C@@H](Cc1ccc2ccccc2c1)C(=O)N[C@H](/C=C/S(=O)(=O)c1ccccc1)CCc1ccccc1 [2Nal‐hPhe‐VS]	0.00259 ± 7e-05	10200 ± 500	0.0037 ± 0.0002	900 ± 100	0.0067 ± 0.0002	200 ± 5			
N[C@@H](Cc1ccc2ccccc2c1)C(=O)N[C@H](/C=C/S(=O)(=O)c1ccccc1)CCCCOCc1ccccc1 [2Nal‐nLeu(o‐Bzl)‐VS]	0.006 ± 0.0007	2200 ± 300	0.0024 ± 0.0006	1370 ± 90	0.005 ± 0.0017	190 ± 50			
N[C@H](Cc1c[nH]c2ccccc12)C(=O)N[C@H](/C=C/S(=O)(=O)c1ccccc1)CCc1ccccc1 [D‐Trp‐hPhe‐VS]	0.0017 ± 0.0006	320 ± 80	0.0026 ± 0.0001	620 ± 70	0.0027 ± 0.0002	26 ± 1			
N[C@H](Cc1c[nH]c2ccccc12)C(=O)N[C@H](/C=C/S(=O)(=O)c1ccccc1)CCCCOCc1ccccc1 [D‐Trp‐nLeu(o‐Bzl)‐VS]	0.0036 ± 0.0002	470 ± 10	0.00197 ± 6e-05	1700 ± 100	0.0055 ± 0.0007	44 ± 2	2700 ± 1600		
N[C@H](C(=O)N[C@H](/C=C/S(=O)(=O)c1ccccc1)CCc1ccccc1)C1Cc2ccccc2C1 [Igl‐hPhe‐VS]	0.0021 ± 0.0007	205000 ± 22000	0.0058 ± 0.0003	18000 ± 3000	0.0027 ± 0.0001	500 ± 30			
N[C@H](C(=O)N[C@H](/C=C/S(=O)(=O)c1ccccc1)CCCCOCc1ccccc1)C1Cc2ccccc2C1 [Igl‐nLeu(o‐Bzl)‐VS]	0.0056 ± 0.0004	35000 ± 4500	0.00148 ± 6e-05	135000 ± 14000	0.0041 ± 0.0002	860 ± 50			
N[C@@H](Cc1c[nH]c2ccccc12)C(=O)N[C@H](/C=C/S(=O)(=O)c1ccccc1)CCc1ccccc1 [L‐Trp‐hPhe‐VS]	0.0033 ± 0.0004	52000 ± 7000	0.0022 ± 9e-05	131000 ± 15000	0.0017 ± 0.0001	3200 ± 300			
N[C@@H](Cc1c[nH]c2ccccc12)C(=O)N[C@H](/C=C/S(=O)(=O)c1ccccc1)CCCCOCc1ccccc1 [L‐Trp‐nLeu(o‐Bzl)‐VS]	0.0032 ± 0.0003	826000 ± 193000	0.00174 ± 3e-05	355000 ± 18000	0.0022 ± 0.0001	5800 ± 600	760 ± 150		
O=C(N[C@H](C=CS(=O)(=O)c1ccccc1)CCc1ccccc1)[C@@H]1CCCN1 [Pro‐hPhe‐VS]	0.0035 ± 0.0002	4100 ± 300	0.00145 ± 7e-05	42000 ± 5000	0.0021 ± 0.0002	470000 ± 35000			
N[C@@H](Cc1ccc(O)c([N+](=O)[O-])c1)C(=O)N[C@H](C=CS(=O)(=O)c1ccccc1)CCc1ccccc1 [Tyr(NO2)‐hPhe‐VS]	0.00226 ± 5e-05	950000 ± 74000	0.0032 ± 0.0006	54 ± 8	0.0038 ± 0.001	150 ± 50			
N[C@@H](Cc1ccc(O)c([N+](=O)[O-])c1)C(=O)N[C@H](/C=C/S(=O)(=O)c1ccccc1)CCCCOCc1ccccc1 [Tyr(NO2)‐nLeu(o‐Bzl)‐VS]	0.0027 ± 0.0002	51000 ± 10000	0.0029 ± 0.0002	380 ± 50	0.0026 ± 0.0003	1100 ± 300	730 ± 170		
O=C(N[C@H](/C=C/S(=O)(=O)c1ccccc1)CCc1ccccc1)[C@@H]1CCCCN1 [hPro‐hPhe‐VS]	0.0021 ± 0.0001	69000 ± 13000	0.00167 ± 8e-05	76000 ± 800	0.0048 ± 0.0006	1.23e+06 ± 400000	160 ± 50	350 ± 80	80 ± 7
O=C(N[C@H](/C=C/S(=O)(=O)c1ccccc1)CCCCOCc1ccccc1)[C@@H]1CCCCN1 [hPro‐nLeu(o‐Bzl)‐VS]	0.002 ± 0.0001	53000 ± 6500	0.00167 ± 3e-05	150000 ± 6000	0.0029 ± 0.0003	3.56e+06 ± 150000			
CCC[C@H](N)C(=O)N[C@H](/C=C/S(=O)(=O)c1ccccc1)CCc1ccccc1 [nVal‐hPhe‐VS]	0.0026 ± 0.0004	940000 ± 160000	0.0022 ± 0.0001	5.83e+06 ± 970000	0.002 ± 0.0001	3.16e+06 ± 750000			
